Laboratory results reported in US20260347348A1, “JAK1/JAK2/TYK2 Inhibitors For Topical Treatment of Dermatological Diseases” (Hangzhou Highlightll Pharmaceutical Co., Ltd, priority 2022, published 2026).

Tests used:
[1] = biological target: T1, JAK1 (Homo sapiens, UniProt P23458); test: JAK1 biochemical test (33P-ATP filter binding kinase assay); conditions: room temperature, 2 hours
Experimental: (§1) The tests were conducted by Reaction Biology Corp, Malvern, PA (Anastassiadis et al. Nat Biotechnol. 2011; 29(11):1039-45). The step is briefly described as follows.
(§2) Basic reaction buffer: 20 mM Hepes (pH 7.5), 10 mM MgCl2, 1 mM EGTA, 0.02% Brij35, 0.02 mg/ml BSA, 0.1 mM Na3VO4, 2 mM DTT and 1% DMSO. The required cofactor was added to each kinase reaction respectively.
(§3) • 1. Preparing the designated substrate in the newly prepared basic reaction buffer; • 2. Transferring the required cofactor to the above matrix solution; • 3. Transferring the designated kinase to the substrate solution and mixing well slightly; • 4. Transferring a compound of formulae I-III in DMSO to the kinase reaction mixture with Acoustic technique (Echo550; nanoliter range), culturing for 20 minutes at room temperature; • 5. Introducing ^33P-ATP (specific activity: 10 μCi/μl) to the reaction mixture to trigger a reaction; • 6. Culturing at room temperature and conducting a kinase reaction for 2 hours; • 7. Plotting the reaction on P81 ion exchange paper; • 8. Testing the kinase activity with a filter binding assay.

[2] = biological target: JAK2 (Homo sapiens, UniProt O60674); test: JAK2 biochemical test (33P-ATP filter binding kinase assay); conditions: room temperature, 2 hours
JAK2, sequence (O60674 whole entry): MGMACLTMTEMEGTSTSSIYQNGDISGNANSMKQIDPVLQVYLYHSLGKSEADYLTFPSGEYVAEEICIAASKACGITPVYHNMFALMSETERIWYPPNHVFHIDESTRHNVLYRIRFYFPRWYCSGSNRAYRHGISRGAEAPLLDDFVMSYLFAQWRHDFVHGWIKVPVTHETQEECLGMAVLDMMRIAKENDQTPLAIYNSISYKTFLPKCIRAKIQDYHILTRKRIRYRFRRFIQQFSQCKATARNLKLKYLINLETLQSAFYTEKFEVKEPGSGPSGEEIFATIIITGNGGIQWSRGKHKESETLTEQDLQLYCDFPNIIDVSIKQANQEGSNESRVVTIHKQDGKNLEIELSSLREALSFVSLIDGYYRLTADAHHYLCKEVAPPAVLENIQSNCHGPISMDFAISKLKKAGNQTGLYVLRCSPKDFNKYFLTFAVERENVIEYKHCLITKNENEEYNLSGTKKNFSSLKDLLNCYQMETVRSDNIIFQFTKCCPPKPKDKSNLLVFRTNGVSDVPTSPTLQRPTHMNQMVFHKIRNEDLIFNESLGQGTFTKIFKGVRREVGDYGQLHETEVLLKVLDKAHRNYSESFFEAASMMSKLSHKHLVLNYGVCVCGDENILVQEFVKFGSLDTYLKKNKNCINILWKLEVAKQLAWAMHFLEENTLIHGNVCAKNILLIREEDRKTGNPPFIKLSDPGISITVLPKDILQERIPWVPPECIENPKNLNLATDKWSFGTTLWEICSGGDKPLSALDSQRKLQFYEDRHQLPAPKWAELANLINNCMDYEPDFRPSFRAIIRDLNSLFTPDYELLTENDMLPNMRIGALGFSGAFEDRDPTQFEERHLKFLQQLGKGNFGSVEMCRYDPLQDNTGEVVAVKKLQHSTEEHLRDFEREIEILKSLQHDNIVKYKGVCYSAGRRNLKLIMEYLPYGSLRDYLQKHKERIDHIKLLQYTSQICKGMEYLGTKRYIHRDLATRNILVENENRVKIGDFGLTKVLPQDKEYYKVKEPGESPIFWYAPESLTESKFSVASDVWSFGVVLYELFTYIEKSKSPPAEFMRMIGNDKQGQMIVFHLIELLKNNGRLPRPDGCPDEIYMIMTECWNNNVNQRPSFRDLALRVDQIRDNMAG
Experimental: as §1, §2, §3

[3] = tested on: TYK2/JAK1/JAK2; test: TYK2/JAK1/JAK2 biochemical tests, comparative summary; conditions: for fold less potent than its 2-((pyrazol-4-yl)amino) analog (example 18): compared with example 18; for fold less potent TYK2/JAK1/JAK2 inhibitor compared to analogs of Formula II (example 4) and Formula III (example 18): compared with examples 4 and 18
Experimental: as §1, §2, §3

[4] = biological target: TYK2 (Homo sapiens, UniProt P29597); test: TYK2 biochemical test (33P-ATP filter binding kinase assay); conditions: room temperature, 2 hours
TYK2, sequence (P29597 whole entry): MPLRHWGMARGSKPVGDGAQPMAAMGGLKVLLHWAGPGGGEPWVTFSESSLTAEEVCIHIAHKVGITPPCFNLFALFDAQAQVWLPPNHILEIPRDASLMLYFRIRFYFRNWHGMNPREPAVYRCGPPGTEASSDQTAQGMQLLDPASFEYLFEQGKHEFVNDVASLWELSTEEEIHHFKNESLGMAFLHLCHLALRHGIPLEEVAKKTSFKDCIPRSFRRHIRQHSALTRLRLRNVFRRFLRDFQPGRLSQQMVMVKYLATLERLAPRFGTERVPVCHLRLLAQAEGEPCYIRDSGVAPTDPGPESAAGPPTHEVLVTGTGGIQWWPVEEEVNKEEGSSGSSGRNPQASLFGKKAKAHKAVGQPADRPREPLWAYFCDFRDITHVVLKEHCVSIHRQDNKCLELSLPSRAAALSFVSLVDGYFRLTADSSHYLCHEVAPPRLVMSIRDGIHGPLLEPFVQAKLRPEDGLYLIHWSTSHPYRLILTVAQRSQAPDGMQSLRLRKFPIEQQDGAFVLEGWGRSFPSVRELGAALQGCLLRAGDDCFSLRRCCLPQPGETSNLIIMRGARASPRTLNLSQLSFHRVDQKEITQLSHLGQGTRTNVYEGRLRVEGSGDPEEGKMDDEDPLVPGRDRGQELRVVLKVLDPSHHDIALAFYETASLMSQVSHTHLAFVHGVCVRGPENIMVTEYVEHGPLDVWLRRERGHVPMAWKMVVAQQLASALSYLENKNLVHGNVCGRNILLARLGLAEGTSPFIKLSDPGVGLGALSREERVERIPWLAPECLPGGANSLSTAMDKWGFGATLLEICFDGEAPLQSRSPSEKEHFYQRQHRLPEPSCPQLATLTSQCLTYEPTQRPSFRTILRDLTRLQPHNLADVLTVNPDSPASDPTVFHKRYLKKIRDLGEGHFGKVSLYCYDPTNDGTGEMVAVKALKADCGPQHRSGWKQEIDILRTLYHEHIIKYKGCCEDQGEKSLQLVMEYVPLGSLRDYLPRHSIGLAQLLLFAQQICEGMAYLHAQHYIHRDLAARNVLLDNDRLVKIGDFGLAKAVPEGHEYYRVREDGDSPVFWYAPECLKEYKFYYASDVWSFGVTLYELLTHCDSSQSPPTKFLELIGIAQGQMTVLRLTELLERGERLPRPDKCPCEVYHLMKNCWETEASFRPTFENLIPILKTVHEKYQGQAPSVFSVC
Experimental: as §1, §2, §3

[5] = biological target: T1, JAK1; test: JAK1 cellular ELISA assay using PBMC cells (IL-6 stimulated STAT3 phosphorylation); format: cell-based; conditions: IL-6 100 ng/ml, 25 min
Experimental: Purpose: test cellular JAK1 activity using the IL-6 stimulated STAT3 phosphorylation assay in PBMC cells.
• 1. Plate PBMC cells to 96-well plate at density of ~300,000 cell/well; • 2. Add different concentrations of test article to wells, maintain in incubator at 37° C. and 5% CO2 for 1 hour; • 3. Add IL-6 (final concentration: 100 ng/ml) to stimulate for 25 min in the above incubator; • 4. After stimulation, transfer the suspension to 1.5 mL tube, centrifuge at 200 g for 5 min, collect cells, add 100 μL 1× lysate, lyse on ice for 1 hour; • 5. Centrifuge at 4° C. and 12000 rpm for 10 min, take the supernatant and analyze according to instructions of the ELISA kit.

[6] = approved oral agents; topical formulation of ruxolitinib; cited from earlier work

T1 sequence (P23458 whole entry): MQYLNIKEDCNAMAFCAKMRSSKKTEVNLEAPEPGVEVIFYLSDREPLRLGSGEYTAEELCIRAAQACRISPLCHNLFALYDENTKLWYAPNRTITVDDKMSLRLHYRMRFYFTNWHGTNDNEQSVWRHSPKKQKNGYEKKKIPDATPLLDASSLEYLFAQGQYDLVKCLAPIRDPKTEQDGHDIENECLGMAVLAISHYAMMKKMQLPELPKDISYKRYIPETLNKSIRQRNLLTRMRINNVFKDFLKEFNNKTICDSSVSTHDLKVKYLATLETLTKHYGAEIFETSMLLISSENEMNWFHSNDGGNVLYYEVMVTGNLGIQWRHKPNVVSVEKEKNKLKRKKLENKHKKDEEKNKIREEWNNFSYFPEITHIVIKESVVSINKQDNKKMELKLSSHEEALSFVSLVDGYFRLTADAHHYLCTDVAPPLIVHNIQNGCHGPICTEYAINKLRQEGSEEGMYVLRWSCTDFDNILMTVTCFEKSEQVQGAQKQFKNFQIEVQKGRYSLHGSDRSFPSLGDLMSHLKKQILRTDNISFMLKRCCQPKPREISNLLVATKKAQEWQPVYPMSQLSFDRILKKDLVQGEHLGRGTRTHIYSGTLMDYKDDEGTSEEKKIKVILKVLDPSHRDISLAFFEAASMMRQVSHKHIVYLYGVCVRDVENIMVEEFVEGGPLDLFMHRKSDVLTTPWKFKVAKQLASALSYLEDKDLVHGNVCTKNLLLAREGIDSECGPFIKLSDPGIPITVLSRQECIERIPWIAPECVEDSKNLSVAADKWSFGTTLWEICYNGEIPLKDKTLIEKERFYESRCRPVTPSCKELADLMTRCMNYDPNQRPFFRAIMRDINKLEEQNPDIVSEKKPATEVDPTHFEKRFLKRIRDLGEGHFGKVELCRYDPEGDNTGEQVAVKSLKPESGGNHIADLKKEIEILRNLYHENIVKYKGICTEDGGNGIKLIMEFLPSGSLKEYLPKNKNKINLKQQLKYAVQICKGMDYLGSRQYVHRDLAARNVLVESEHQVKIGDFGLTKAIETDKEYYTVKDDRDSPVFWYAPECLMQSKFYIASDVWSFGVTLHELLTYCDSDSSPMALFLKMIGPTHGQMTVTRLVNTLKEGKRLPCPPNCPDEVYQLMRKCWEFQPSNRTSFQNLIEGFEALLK

Row | IC50 [1] [nM] | IC50 [2] [nM] | IC50 [4] [nM] | IC50 [5] [nM] | SMILES | TYK2/JAK1/JAK2 inhibition (in words) [3] | fold less potent than its 2-((pyrazol-4-yl)amino) analog (example 18) [3] [×] | fold less potent TYK2/JAK1/JAK2 inhibitor compared to analogs of Formula II (example 4) and Formula III (example 18) [3] [×] | black box warnings / risks [6]
1 | < 10 | < 1 | < 1 | – | CCS(=O)(=O)N1CC(CC#N)(n2cc(-c3nc(Nc4cnn(C)c4)ncc3C3CC3)cn2)C1 [Compound 2, 2-(3-(4-(5-cyclopropyl-2-((1-methyl-1H-pyrazol-4-yl)amino)pyrimidin-4-yl)-1H-pyrazol-1-yl)-1-(ethylsulfonyl)azetidin-3-yl) acetonitrile] | potent TYK2/JAK1/JAK2 inhibitors | – | – | –
2 | < 1 | < 1 | < 1 | – | Cc1cnc(Nc2cnoc2)nc1-c1cnn([C@H](CC#N)C2CCCC2)c1 [Compound 5, (R)-3-cyclopentyl-3-(4-(2-(isoxazol-4-ylamino)-5-methylpyrimidin-4-yl)-1H-pyrazol-1-yl) propanenitrile] | potent TYK2/JAK1/JAK2 inhibitors | – | – | –
3 | < 1 | < 1 | < 1 | – | Cc1cnc(Nc2cnn(CC3CCOCC3)c2)nc1-c1cnn([C@H](CC#N)C2CCCC2)c1 [Compound 6, (R)-3-cyclopentyl-3-(4-(5-methyl-2-((1-((tetrahydro-2H-pyran-4-yl)methyl)-1H-pyrazol-4-yl)amino)pyrimidin-4-yl)-1H-pyrazol-1-yl)propanenitrile] | potent TYK2/JAK1/JAK2 inhibitors | – | – | –
4 | < 1 | < 1 | < 1 | – | Cc1cnc(Nc2cnn(C3CCOCC3)c2)nc1-c1cnn([C@H](CC#N)C2CCCC2)c1 [Compound 7, (R)-3-cyclopentyl-3-(4-(5-methyl-2-((1-(tetrahydro-2H-pyran-4-yl)-1H-pyrazol-4-yl)amino)pyrimidin-4-yl)-1H-pyrazol-1-yl)propanenitrile] | potent TYK2/JAK1/JAK2 inhibitors | – | – | –
5 | < 1 | < 1 | < 1 | – | Cc1cnc(Nc2cnn(C3COC3)c2)nc1-c1cnn([C@H](CC#N)C2CCCC2)c1 [Compound 8, (R)-3-cyclopentyl-3-(4-(5-methyl-2-((1-(oxetan-3-yl)-1H-pyrazol-4-yl)amino)pyrimidin-4-yl)-1H-pyrazol-1-yl) propanenitrile] | potent TYK2/JAK1/JAK2 inhibitors | – | – | –
6 | < 1 | < 1 | < 1 | – | Cc1cnc(Nc2cnn(CC3COC3)c2)nc1-c1cnn([C@H](CC#N)C2CCCC2)c1 [Compound 9, (R)-3-cyclopentyl-3-(4-(5-methyl-2-((1-(oxetan-3-ylmethyl)-1H-pyrazol-4-yl)amino)pyrimidin-4-yl)-1H-pyrazol-1-yl) propanenitrile] | potent TYK2/JAK1/JAK2 inhibitors | – | – | –
7 | – | – | < 1 | – | N#CC[C@H](C1CCCC1)n1cc(-c2nc(Nc3cnn(C4CCOCC4)c3)ncc2Cl)cn1 [Compound 11] | potent TYK2/JAK1/JAK2 inhibitors | – | – | –
8 | > 10 | – | > 10 | – | CCS(=O)(=O)N1CC(CC#N)(n2cc(-c3nc(Nc4ccn(C)n4)ncc3C)cn2)C1.Cl [Compound 14, 2-(1-(ethylsulfonyl)-3-(4-(5-methyl-2-((1-methyl-1H-pyrazol-3-yl)amino)pyrimidin-4-yl)-1H-pyrazol-1-yl)azetidin-3-yl)acetonitrile hydrochloride, reference compound] | – | > 10 | – | –
9 | > 10 | > 10 | > 10 | – | CCS(=O)(=O)N1CC(CC#N)(n2cc(-c3nc(Nc4cn(C)nn4)ncc3C)cn2)C1 [Compound 19, 2-(1-(ethylsulfonyl)-3-(4-(5-methyl-2-((1-methyl-1H-1,2,3-triazol-4-yl)amino)pyrimidin-4-yl)-1H-pyrazol-1-yl)azetidin-3-yl)acetonitrile, reference compound] | – | > 10 | – | –
10 | > 10 | > 10 | > 10 | – | CCCS(=O)(=O)N[C@H]1C[C@@H](N(C)c2nc(Nc3cnn(C)c3)ncc2C)C1 [Compound 20, N-((1s,3s)-3-(methyl(5-methyl-2-((1-methyl-1H-pyrazol-4-yl)amino)pyrimidin-4-yl)amino)cyclobutyl)propane-1-sulfonamide, reference compound] | – | – | > 10 | –
11 | > 100 | > 100 | > 100 | – | CNS(=O)(=O)C[C@H]1CC[C@H](N(C)c2nc(Nc3cnn(C)c3)ncc2C)CC1 [Compound 21, N-methyl-1-((1r,4r)-4-(methyl(5-methyl-2-((1-methyl-1H-pyrazol-4-yl)amino)pyrimidin-4-yl)amino)cyclohexyl)methanesulfonamide, reference compound] | – | – | > 100 | –
12 | > 100 | – | > 100 | – | Cc1cnc(Nc2cnn(C)c2)nc1N(C)[C@H]1CN(C(=O)CC#N)CC[C@H]1C [Compound 22, 3-((3R,4R)-4-methyl-3-(methyl(5-methyl-2-((1-methyl-1H-pyrazol-4-yl)amino)pyrimidin-4-yl)amino)piperidin-1-yl)-3-oxopropanenitrile, reference compound] | – | – | > 100 | –
13 | < 1 | < 1 | < 1 | < 500 | Cc1cnc(Nc2ccc3ncn(C)c3c2)nc1-c1cnn([C@H](CC#N)C2CCCC2)c1 [Compound 23, (R)-3-cyclopentyl-3-(4-(5-methyl-2-((1-methyl-1H-benzo[d]imidazol-6-yl)amino)pyrimidin-4-yl)-1H-pyrazol-1-yl)propanenitrile] | potent TYK2/JAK1/JAK2 inhibitors | – | – | –
14 | < 1 | < 1 | < 1 | < 500 | Cc1cnc(Nc2cnn(CCO)c2)nc1-c1cnn([C@H](CC#N)C2CCCC2)c1 [Compound 24, (R)-3-cyclopentyl-3-(4-(2-((1-(2-hydroxyethyl)-1H-pyrazol-4-yl)amino)-5-methylpyrimidin-4-yl)-1H-pyrazol-1-yl)propanenitrile] | potent TYK2/JAK1/JAK2 inhibitors | – | – | –
15 | < 1 | – | – | – | CCS(=O)(=O)N1CC(CC#N)(n2cc(-c3nc(Nc4ccc5ncn(C)c5c4)ncc3C)cn2)C1 [Compound 26, 2-(1-(ethylsulfonyl)-3-(4-(5-methyl-2-((1-methyl-1H-benzo[d]imidazol-6-yl)amino)pyrimidin-4-yl)-1H-pyrazol-1-yl)azetidin-3-yl)acetonitrile] | potent TYK2/JAK1/JAK2 inhibitors | – | – | –
16 | – | – | – | – | CCCS(=O)(=O)N[C@H]1C[C@@H](N(C)c2ncnc3[nH]ccc23)C1 [abrocitinib] | – | – | – | black box warnings of risks such as serious infections, non-melanoma skin cancers, thrombosis, and thrombocytopenia
17 | – | – | – | – | CC[C@@H]1CN(C(=O)NCC(F)(F)F)C[C@@H]1c1cnc2cnc3[nH]ccc3n12 [upadacitinib] | – | – | – | black box warnings of risks such as serious infections, non-melanoma skin cancers, thrombosis, and thrombocytopenia
